This is an account of results in patent US6518288B2, “Amlodipine fumarate” (Synthon BV, priority 2000, dated 2003).

The data set in a line: Solubility of amlodipine hemifumarate in water and organic solvents (descriptive statement). It is filed as physicochemical. The conditions noted are these: in water and most commonly used organic solvents.

Regarding Amlodipine Hemifumarate, the solubility entry is recorded as “insoluble or only sparingly soluble”.
